# Experimental data published in patent publication US20250025443A1, “COMPOUNDS AND METHODS FOR TREATING CORONA VIRUSES” (CLEAR CREEK BIO, INC., priority 2021, published 2025).
# pIC50: −log10 of the molar value. Read-outs that look alike come from different tables or passages of the source.
# Target: SARS-CoV-2 Papain-Like Protease (PLpro) (Severe acute respiratory syndrome coronavirus 2 (2019-nCoV) (SARS-CoV-2), UniProt P0DTD1)
# Test: biochemical
# Details: read-out: PLpro IC50
# [1] = SARS-CoV-2 PLpro enzymatic fluorescence assay
# [2] = PLpro enzymatic fluorescence assay, class symbols
Compound,pIC50 [1],pIC50 [2],also measured
"Cc1cc2c(cc1C(=O)NC1(c3cccc4ccccc34)CC1)N1C(=O)NCC1C2 (centres unmarked) [Compound 194, 7-Methyl-N-(1-(naphthalen-1-yl)cyclopropyl)-3-oxo-2,3,9,9a-tetrahydro-1H-imidazo[1,5-a]indole-6-carboxamide]",5.30 to 6.00,–,–
"CCS(=O)(=O)N1CCC([C@@H](C)NC(=O)c2cc(NC3CNC3)ccc2C)CC1 [Compound 166, (R)-5-(Azetidin-3-ylamino)-N-(1-(1-(ethylsulfonyl)piperidin-4-yl)ethyl)-2-methylbenzamide]",< 5.30,–,–
"Cc1cc(C2(NC(=O)c3cc(OCC4CCN4C)ccc3C)CC2)c2ccccc2c1 (centres unmarked) [Compound 501, 2-Methyl-5-((1-methylazetidin-2-yl)methoxy)-N-(1-(3-methylnaphthalen-1-yl)cyclopropyl)benzamide]",> 7.00,–,–
"CN(C)CCOc1ccc(C2CC2)c(C(=O)NC2(c3cccc4ccccc34)CC2)c1 [Compound 353, 2-Cyclopropyl-5-(2-(dimethylamino)ethoxy)-N-(1-(naphthalen-1-yl)cyclopropyl)benzamide]",< 5.30,–,–
"Cc1ccc(OCCN(C)C)cc1C(=O)NC1(c2ccc(OCc3ccccc3)cc2)CC1 [Compound 307, N-(1-(4-(Benzyloxy)phenyl)cyclopropyl)-5-(2-(dimethylamino)ethoxy)-2-methylbenzamide]",< 5.30,–,–
"Cc1ccc(OC[C@@H]2CCN2C)cc1C(=O)NC1(c2cc(N(C)C)cc3ncccc23)CC1 [Compound 627, (S)-N-(1-(7-(Dimethylamino)quinolin-5-yl)cyclopropyl)-2-methyl-5-((1-methylazetidin-2-yl)methoxy)benzamide]",> 7.00,–,–
"Cc1ccc(OC[C@@H]2CCN2C)cc1C(=O)NC1(c2cc(NCC(F)(F)F)cc3ncccc23)CC1 [Compound 759, (S)-2-Methyl-5-((1-methylazetidin-2-yl)methoxy)-N-(1-(7-((2,2,2-trifluoroethyl)amino)quinolin-5-yl)cyclopropyl)benzamide]",–,> 7.00,–
"COc1cc(C2(NC(=O)c3cc(OCCN(C)CCF)ccc3C)CC2)c2cccnc2c1 [Compound 571, 5-(2-((2-Fluoroethyl)(methyl)amino)ethoxy)-N-(1-(7-methoxyquinolin-5-yl)cyclopropyl)-2-methylbenzamide]",–,> 7.00,–
"Cc1ccc(OC[C@@H]2CCN2)cc1C(=O)NC1(c2cc(-c3ccc(C#N)s3)cc3ncccc23)CC1 [Compound 658, (S)-5-(Azetidin-2-ylmethoxy)-N-(1-(7-(5-cyanothiophen-2-yl)quinolin-5-yl)cyclopropyl)-2-methylbenzamide]",–,> 7.00,–
"Cc1ccc(OC[C@@H]2CCN2C)cc1C(=O)NC1(c2cc(C3CCCC3)cc3ncccc23)CC1 [Compound 648, (S)-N-(1-(7-Cyclopentylquinolin-5-yl)cyclopropyl)-2-methyl-5-((1-methylazetidin-2-yl)methoxy)benzamide]",–,> 7.00,–
"Cc1ccc(OCCN(C)C)cc1C(=O)NC1(c2csc3ccccc23)CC1 [Compound 346, N-(1-(Benzo[b]thiophen-3-yl)cyclopropyl)-5-(2-(dimethylamino)ethoxy)-2-methylbenzamide]",6.00 to 7.00,–,–
"Cc1ccc(O)cc1C(=O)N[C@H](C)c1cccc2ccccc12 [Compound 101, (R)-5-Hydroxy-2-methyl-N-(1-(naphthalen-1-yl)ethyl)benzamide]",–,–,"pIC50 (PLpro 6.25 nM, substrate 25 μM, 60 min at 25° C., for more potent compounds PLpro 1 nM, 120 min): 5.30 to 6.00"
"Cc1ccc(OCC2CCN2C)cc1C(=O)NC1(c2cc(OC(C)C)cc3ccccc23)CC1 (centres unmarked) [Compound 476, N-(1-(3-Isopropoxynaphthalen-1-yl)cyclopropyl)-2-methyl-5-((1-methylazetidin-2-yl)methoxy)benzamide]",–,> 7.00,–
"Cc1ccc(N)cc1C(=O)NC(CF)c1cccc2ccccc12 (centres unmarked) [Compound 200, 5-Amino-N-(2-fluoro-1-(naphthalen-1-yl)ethyl)-2-methylbenzamide]",5.30 to 6.00,–,–
"CN(Cc1ccc2[nH]ncc2c1)C1(c2cccc3ccccc23)CC1 [Compound 184, N-((1H-Indazol-5-yl)methyl)-N-methyl-1-(naphthalen-1-yl)cyclopropane amine]",< 5.30,–,–
"Cc1ccc(OC[C@@H]2CCN2C)cc1C(=O)NC1(c2cc(N3CCC3)cc3ncccc23)CC1 [Compound 723, (S)—N-(1-(7-(Azetidin-1-yl)quinolin-5-yl)cyclopropyl)-2-methyl-5-((1-methylazetidin-2-yl)methoxy)benzamide]",–,> 7.00,–
"COc1cc(C2(NC(=O)c3cc(OCC45CCCN4CCC5)ccc3C)CC2)c2cccnc2c1 [Compound 559, 5-((Hexahydro-1H-pyrrolizin-7a-yl)methoxy)-N-(1-(7-methoxyquinolin-5-yl)cyclopropyl)-2-methylbenzamide]",–,> 7.00,–
"[2H]C1([2H])C([2H])([2H])C1(NC(=O)c1cc(OC[C@@H]2CCN2C)ccc1C)c1cc(OC)cc2ncccc12 [Compound 794, (S)-N-(1-(7-Methoxyquinolin-5-yl)cyclopropyl-2,2,3,3-d4)-2-methyl-5-((1-methylazetidin-2-yl)methoxy)benzamide]",–,> 7.00,–
"Cc1ccc(OCCN(C)C)cc1C(=O)NC1(c2cccc3ccc(F)cc23)CC1 [Compound 365, 5-(2-(Dimethylamino)ethoxy)-N-(1-(7-fluoronaphthalen-1-yl)cyclopropyl)-2-methylbenzamide]",> 7.00,–,–

Compound,pIC50 [1],pIC50 [2],also measured
(S)-5-(Azetidin-2-ylmethoxy)-2-methyl-N-(1-(7-morpholinoquinolin-5-yl)cyclopropyl)benzamide [Compound 712],–,> 7.00,–
"Cc1ccc2c(C3(NC(=O)c4cc(OC[C@@H]5CCN5C)ccc4C)CC3)cc(OCF)cc2n1 [Compound 823, (S)—N-(1-(7-(Fluoromethoxy)-2-methylquinolin-5-yl)cyclopropyl)-2-methyl-5-((1-methylazetidin-2-yl)methoxy)benzamide]",–,> 7.00,–
"CCS(=O)(=O)c1cc(C2(NC(=O)c3cc(OCCN(C)C)ccc3C)CC2)c2ccccc2c1 [Compound 471, 5-(2-(Dimethylamino)ethoxy)-N-(1-(3-(ethylsulfonyl)naphthalen-1-yl)cyclopropyl)-2-methylbenzamide]",6.00 to 7.00,–,–
"Cc1ccc(OCCN(C)C)cc1C(=O)NC1(c2cn(C)c3ccccc23)CC1 [Compound 354, 5-(2-(Dimethylamino)ethoxy)-2-methyl-N-(1-(1-methyl-1H-indol-3-yl)cyclopropyl)benzamide]",6.00 to 7.00,–,–
"Cc1ccc(CCCN)cc1C(=O)NC1(c2cccc3ccccc23)CC1 [Compound 472, 5-(3-Aminopropyl)-2-methyl-N-(1-(naphthalen-1-yl)cyclopropyl)benzamide]",> 7.00,–,–
"Cc1ccc(OCCN2CCOCC2)cc1C(=O)NC1(c2cccc3ccccc23)CC1 [Compound 209, 2-Methyl-5-(2-morpholinoethoxy)-N-(1-(naphthalen-1-yl)cyclopropyl)benzamide]",6.00 to 7.00,–,–
"Cc1ccc(OC[C@@H]2CCN2C)cc1C(=O)NC1(c2cc(-c3ccc4ncnn4c3)cc3ncccc23)CC1 [Compound 700, (S)—N-(1-(7-([1,2,4]Triazolo[1,5-a]pyridin-6-yl)quinolin-5-yl)cyclopropyl)-2-methyl-5-((1-methylazetidin-2-yl)methoxy)benzamide]",–,> 7.00,–
"(S)-2-Methyl-N-(1-(2-methyl-7-((2,2,2-trifluoroethyl)amino)quinolin-5-yl)cyclopropyl)-5-((1-methylazetidin-2-yl)methoxy)benzamide [Compound 807]",–,> 7.00,–
"Cc1ccc(NC2CNC2)cc1C(=O)NC1(c2cccc3ccccc23)CC1 [Compound 177, 5-(Azetidin-3-ylamino)-2-methyl-N-(1-(naphthalen-1-yl)cyclopropyl)benzamide]",6.00 to 7.00,–,–
"Cc1ccc(OCCN(C)C)cc1C(=O)NC1(c2ccc(F)cc2)CC1 [Compound 259, 5-(2-(Dimethylamino)ethoxy)-N-(1-(4-fluorophenyl)cyclopropyl)-2-methylbenzamide]",< 5.30,–,–
"Cc1cc2c(cc1C(=O)NC1(c3cccc4ccccc34)CC1)NC(=O)C2 [Compound 249, 5-Methyl-N-(1-(naphthalen-1-yl)cyclopropyl)-2-oxoindoline-6-carboxamide]",6.00 to 7.00,–,–
"Cc1ccc(OC[C@@H]2CCN2)cc1C(=O)NC1(c2cc(-c3cnn(C)c3)cc3ncccc23)CC1 [Compound 665, (S)-5-(Azetidin-2-ylmethoxy)-2-methyl-N-(1-(7-(1-methyl-1H-pyrazol-4-yl)quinolin-5-yl)cyclopropyl)benzamide]",–,> 7.00,–
"Cc1ccc(OCC2CCN2C)cc1C(=O)NC1(c2cc(NC(=O)OC(C)(C)C)cc3ccccc23)CC1 (centres unmarked) [Compound 482, tert-Butyl(4-(1-(2-methyl-5-((1-methylazetidin-2-yl)methoxy)benzamido)cyclopropyl)naphthalen-2-yl)carbamate]",> 7.00,–,–
"Cc1ccc(N2CCC(N)CC2)cc1C(=O)NC1(c2cccc3ccccc23)CC1 [Compound 463, 5-(4-Aminopiperidin-1-yl)-2-methyl-N-(1-(naphthalen-1-yl)cyclopropyl)benzamide]",6.00 to 7.00,–,–
"Cc1ccc(OCCN(C)C)cc1C(=O)NC1(c2cccc3cccnc23)CC1 [Compound 388, 5-(2-(Dimethylamino)ethoxy)-2-methyl-N-(1-(quinolin-8-yl)cyclopropyl)benzamide]",> 7.00,–,–
"Cc1cc(I)c(N)cc1C(=O)NC1(c2cccc3ccccc23)CC1 [Compound 216, 5-Amino-4-iodo-2-methyl-N-(1-(naphthalen-1-yl)cyclopropyl)benzamide]",6.00 to 7.00,–,–
"Cc1ccc(OC[C@@H]2CCN2C)cc1C(=O)NC1(c2cc(OC(C)C)cc3ncccc23)CC1 [Compound 587, (S)-N-(1-(7-Isopropoxyquinolin-5-yl)cyclopropyl)-2-methyl-5-((1-methylazetidin-2-yl)methoxy)benzamide]",> 7.00,–,–
"CNCCOc1ccc(C)c(C(=O)NC2(c3cccc4ccccc34)COC2)c1 [Compound 451, 2-Methyl-5-(2-(methylamino)ethoxy)-N-(3-(naphthalen-1-yl)oxetan-3-yl)benzamide]",> 7.00,–,–
"c1ccc2c(C3(NCc4ccc5[nH]ncc5c4)CC3)cccc2c1 [Compound 178, N-((1H-indazol-5-yl)methyl)-1-(naphthalen-1-yl)cyclopropan-1-amine]",< 5.30,–,–
